In patent US20250359548A1, “METHODS OF IMPROVING STRESS TOLERANCE, GROWTH AND YIELD IN PLANTS” (Valent BioSciences LLC, priority 2020, published 2025):

Key:
Format in all cases: in vivo
[1] = system: Apogee wheat; assay: Example 1: grain yield in Apogee wheat under water stress (greenhouse pots, spray at Feekes 11.0); conditions: drought stress
Protocol: 42 pots of Apogee wheat were grown in a greenhouse under ideal growing conditions. Specifically, wheat was planted in ProMix® growth media and grown for about-seven weeks in a growth cabinet at 24/18° C. day/night temperature under a 16/8 hour light/dark photoperiod. Next, spray applications of 0.025% v/v Latron B-1956® in water, 30 ppm ABA, 30 ppm 6BA, 10 ppm CPPU, a mixture of 30 ppm ABA and 30 ppm 6BA and a mixture of 30 ppm ABA and 10 ppm CPPU (n=7) were made using a tank sprayer at Feekes stage 11.0. Plants were then grown with no additional water for next 3-5 days until drought stress conditions and water-deficit stress-related phenotypes were apparent. Specifically, drought stress conditions are determined as when pots have lost 60-70% of stored soil water, as determined by determined gravimetrically by weighing pots, through evapotranspiration and water-deficit stress-related phenotypes include wilting and leaf-rolling. Plants were re-watered to bring soil moisture to saturation and subsequently grown under optimal conditions until physiological maturity. Plants were then destructively harvested and measured for spike weight, grain weight, yield per spike and harvest index. Harvest index is calculated by dividing pounds of grain by the total pounds of above ground biomass.
(§1) To determine if the mixtures provided unexpected results, the observed combined efficacy (“OCE”) was divided by the expected combined efficacy (“ECE”) to give an OCE/ECE ratio wherein the expected ECE is calculated by a variation of the Abbott method:
(§2) [formula] • wherein ECE is the expected combined efficacy and in which X is the control efficacy and A and B are the efficacy provided by the single active ingredients. If the ratio between the OCE of the mixture and the ECE of the mixture is greater than 1, then greater than expected interactions are present in the mixture. (Gisi, The American Phytopathological Society, 86:11, 1273-1279, 1996).

[2] = system: Apogee wheat; assay: Example 3: grain yield in Apogee wheat under well-watered conditions, two sprays
Protocol: as §1, §2
32 pots of Apogee wheat were grown in a greenhouse under ideal growing conditions. Specifically, wheat was planted in ProMix® growth media and grown for about seven weeks in a growth cabinet at 24/18° C. day/night temperature under a 16/8 hour light/dark photoperiod. Next, spray applications of 0.025% v/v Latron B-1956® in water, 30 ppm ABA, 10 ppm CPPU, and a mixture of 30 ppm ABA and 10 ppm CPPU (n=8) were made using a tank sprayer at Feekes stage 11.0. A second chemical spray application was made seven days after first spray. Plants were then grown under ideal conditions for an additional 5-6 weeks until they reached physiological maturity. Plants were then destructively harvested and measured for spike weight, grain yield, yield per spike and total above ground biomass.

[3] = system: Apogee wheat; assay: Example 4: grain yield in Apogee wheat under water stress, dose combinations; conditions: drought stress
Protocol: as §1, §2
72 pots of Apogee wheat were grown in a greenhouse under ideal growing conditions. Specifically, wheat was planted in ProMix® growth media and grown for about seven weeks in a growth cabinet at 24/18° C. day/night temperature under a 16/8 hour light/dark photoperiod. Next, spray applications of 0.025% v/v Latron B-1956® in water, 10 ppm ABA, 30 ppm ABA, 5 ppm CPPU, 10 ppm CPPU, a mixture of 10 ppm ABA and 5 ppm CPPU, a mixture of 30 ppm ABA and 5 ppm CPPU, a mixture of 10 ppm ABA and 10 ppm CPPU and a mixture of 30 ppm ABA and 10 ppm CPPU (n=8) were made using a tank sprayer at Feekes stage 11.0. Plants were then grown with no additional water for next 3-5 until drought stress conditions and water-deficit stress related phenotype was apparent. Plants were re-watered to bring soil moisture to saturation and grown under optimal conditions until physiological maturity. Plants were then destructively harvested and measured for spike weight, grain yield, yield per spike and total above ground biomass.

[4] = system: rice; assay: Example 5: grain yield in rice (spray at R6)
Protocol: as §1, §2
32 pots of rice were grown in a greenhouse under ideal growing conditions. Specifically, rice was planted in growth media comprising sand and Pro-Mix® BX and grown for about 3-4 weeks in a growth cabinet at 24/18° C. day/night temperature under a 18/6 hour light/dark photoperiod. Next, spray applications of 0.025% v/v Latron B-1956® in water, 30 ppm ABA, 10 ppm CPPU, and a mixture of 30 ppm ABA and 10 ppm CPPU (n=8) were made using a tank sprayer at early grain filling stage (growth stage R6). Plants were then grown under ideal conditions for an additional 5-7 weeks. Plants were then destructively harvested and measured for yield of top six panicles, yield from other panicles (not top six panicles), yield of all panicles, yield per panicle and yield per top six panicles.

[5] = system: Apogee wheat; assay: Example 2: grain yield in Apogee wheat under water stress; conditions: 30 ppm spray; drought stress
Protocol: as §1, §2
Thirty-two pots of Apogee wheat were grown in a greenhouse under ideal growing conditions. Specifically, wheat was planted in ProMix® growth media and grown for about seven weeks in a growth cabinet at 24/18° C. day/night temperature under a 16/8 hour light/dark photoperiod. Next, spray applications of 0.025% v/v Latron B-1956® in water, 30 ppm ABA, 30 ppm 6BA, and a mixture of 30 ppm ABA and 30 ppm 6BA (n=8) were made using a tank sprayer at Feekes stage 11.0. Plants were then grown with no additional water for the next 3-5 days until drought stress conditions and water-deficit stress-related phenotypes were apparent. Plants were re-watered to bring soil moisture to saturation and grown under optimal conditions until physiological maturity. Plants were then destructively harvested and measured for shoot weight, spike weight, grain yield, yield per spike and total above ground biomass.

[6] = system: rice; assay: Example 6: grain yield in rice (spray at R5 to R6); conditions: 30 ppm spray at R5 to R6
Protocol: as §1, §2
48 pots of rice were grown in a greenhouse under ideal growing conditions. Specifically, rice was planted in growth media comprising sand and Pro-Mix® BX and grown for about 3-4 weeks in a growth cabinet at 24/18° C. day/night temperature under a 18/6 hour light/dark photoperiod. Next, spray applications of 0.025% v/v Latron B-1956® in water, 30 ppm ABA, 30 ppm 6BA, 45 ppm 6BA, a mixture of 30 ppm ABA and 30 ppm 6BA, and a mixture of 30 ppm ABA and 45 ppm 6BA (n=8) were made using a tank sprayer at early grain filling stage (growth stage R5 to R6). Plants were then grown under ideal conditions for an additional 5-7 weeks. Plants were then destructively harvested and measured for yield of top six panicles, yield from other panicles (not top six panicles), yield of all panicles, yield per panicle and yield per top six panicles.

[7] = system: Corn; assay: Example 7: grain yield in field corn, Seymour IL 2020
Protocol: (§3) Corn was grown in the field in Seymour, IL in 2020. Spray applications of water, 2 g/HA ABA, 6 g/HA ABA and a mixture of 2 g/HA ABA and 2 g/HA 6BA (n=8) were made using a tank sprayer at the blister to milk stage (growth stage R2-R3). Plants were then grown until mature. Plants were then destructively harvested and measured for grain yield.

[8] = system: Soybean; assay: Example 8: grain yield in field soybean, Seymour IL 2020
Protocol: as §3, with “Soybean” for “Corn”, “beginning of seeding” for “blister to milk stage”, “R4 to R5).” for “R2-R3).”

[9] = system: Barley; assay: Example 9: grain yield in field barley, Argentina 2020
Protocol: Barley was grown in the field in Pieres, Buenos Aires Province, Argentina from Jun. 15 to Dec. 30, 2020. 2 g/HA ABA, 6 g/HA ABA and mixtures of 2 g/HA ABA and 2 g/HA 6BA and 4 g/HA ABA and 2 g/HA 6BA (n=8) were made using a tank sprayer at the beginning of milk grains (growth stage Zadoks 7.2). Plants were then grown until mature. Plants were then destructively harvested and measured for grain yield.

O=C(Nc1ccccc1)Nc1ccnc(Cl)c1 [CPPU, n-(2-chloro-4-pyridyl)-n′-phenylurea]
Grain Yield ([1]; 10 ppm spray): 9.69 grams
Harvest Index ([1]; 10 ppm spray): 0.56
Spike Weight ([1]; 10 ppm spray): 12.99 grams
Yield/Spike ([1]; 10 ppm spray): 1.34 grams
Grain Yield ([2]; 10 ppm): 8.28 grams
Spike Weight ([2]; 10 ppm): 11.86 grams
Total Above Ground Biomass ([2]; 10 ppm): 15.98 grams
Yield/Spike ([2]; 10 ppm): 0.95 grams
Grain Yield ([3]; 5 ppm spray): 6.20 grams
Spike Weight ([3]; 5 ppm spray): 8.57 grams
Total Above Ground Biomass ([3]; 5 ppm spray): 11.34 grams
Yield/Spike ([3]; 5 ppm spray): 0.98 grams
Grain Yield ([3]; 10 ppm spray): 6.32 grams
Spike Weight ([3]; 10 ppm spray): 8.12 grams
Total Above Ground Biomass ([3]; 10 ppm spray): 10.94 grams
Yield/Spike ([3]; 10 ppm spray): 1.00 grams
Yield of All ([4]; 10 ppm spray at R6): 26.33 grams
Yield of Others ([4]; 10 ppm spray at R6): 11.16 grams
Yield of Top 6 ([4]; 10 ppm spray at R6): 15.17 grams
Yield per Panicle ([4]; 10 ppm spray at R6): 2.22 grams
Yield per Top 6 ([4]; 10 ppm spray at R6): 2.53 grams

(S)-abscisic acid [ABA]
Grain Yield ([1]; 30 ppm spray): 10.24 grams
Harvest Index ([1]; 30 ppm spray): 0.55
Spike Weight ([1]; 30 ppm spray): 14.06 grams
Yield/Spike ([1]; 30 ppm spray): 1.40 grams
Grain Yield [5]: 12.12 grams
Shoot Weight [5]: 5.04 grams
Spike Weight [5]: 15.66 grams
Total Above Ground Biomass [5]: 20.70 grams
Yield/Spike [5]: 1.33 grams
Grain Yield ([2]; 30 ppm): 8.49 grams
Spike Weight ([2]; 30 ppm): 11.60 grams
Total Above Ground Biomass ([2]; 30 ppm): 15.38 grams
Yield/Spike ([2]; 30 ppm): 1.04 grams
Grain Yield ([3]; 10 ppm spray): 6.95 grams
Spike Weight ([3]; 10 ppm spray): 9.22 grams
Total Above Ground Biomass ([3]; 10 ppm spray): 12.11 grams
Yield/Spike ([3]; 10 ppm spray): 1.08 grams
Grain Yield ([3]; 30 ppm spray): 6.72 grams
Spike Weight ([3]; 30 ppm spray): 8.90 grams
Total Above Ground Biomass ([3]; 30 ppm spray): 11.47 grams
Yield/Spike ([3]; 30 ppm spray): 1.06 grams
Yield of All ([4]; 30 ppm spray at R6): 28.47 grams
Yield of Others ([4]; 30 ppm spray at R6): 12.72 grams
Yield of Top 6 ([4]; 30 ppm spray at R6): 15.75 grams
Yield per Panicle ([4]; 30 ppm spray at R6): 2.34 grams
Yield per Top 6 ([4]; 30 ppm spray at R6): 2.63 grams
Yield of All [6]: 23.70 grams
Yield of Others [6]: 5.22 grams
Yield of Top 6 [6]: 19.14 grams
Yield per Panicle [6]: 2.95 grams
Yield per Top 6 [6]: 3.19 grams
Grain Yield ([7]; 2 g/HA spray at R2-R3): 225 bushels/acre
Grain Yield ([7]; 6 g/HA spray at R2-R3): 234 bushels/acre
Grain Yield ([8]; 2 g/HA spray at R4 to R5): 96.57 bushels/acre
Grain Yield ([8]; 6 g/HA spray at R4 to R5): 93.80 bushels/acre
Grain Yield ([9]; 2 g/HA spray at Zadoks 7.2): 5319
Grain Yield ([9]; 6 g/HA spray at Zadoks 7.2): 5114
